In ChEMBL document CHEMBL4118122, “Identification and biological evaluation of thiazole-based inverse agonists of RORγt” (Bioorg Med Chem Lett, 2018):
Values after ≈ are worked out from the molar mass of the structure shown.

Experiments:
PXR (NR1I2) [1] = molecular target: T1, PXR (NR1I2) (Homo sapiens, UniProt O75469); experiment: […] at PXR LBD (unknown origin) expressed in HEK293 cells […] at 1 uM after 16 hrs by luciferase reporter gene assay relative to rifampicin; assay type: ADME, cell-based; details: HEK293 cells expressing PXR LBD, read-out: Efficacy
T1 sequence (O75469 whole entry): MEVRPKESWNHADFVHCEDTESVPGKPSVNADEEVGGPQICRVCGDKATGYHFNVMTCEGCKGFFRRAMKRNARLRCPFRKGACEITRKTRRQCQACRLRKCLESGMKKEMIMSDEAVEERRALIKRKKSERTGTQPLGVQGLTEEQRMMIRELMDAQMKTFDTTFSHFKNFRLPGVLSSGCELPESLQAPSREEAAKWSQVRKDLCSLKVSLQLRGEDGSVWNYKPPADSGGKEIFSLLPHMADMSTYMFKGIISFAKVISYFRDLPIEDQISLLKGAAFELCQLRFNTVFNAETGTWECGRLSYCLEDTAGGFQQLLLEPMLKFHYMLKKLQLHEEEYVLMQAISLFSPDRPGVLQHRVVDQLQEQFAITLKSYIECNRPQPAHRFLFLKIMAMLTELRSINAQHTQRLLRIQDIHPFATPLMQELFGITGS

PXR (NR1I2) [2] = molecular target: T1, PXR (NR1I2); experiment: […] at PXR LBD (unknown origin) expressed in HEK293 cells […] at 10 uM after 16 hrs by luciferase reporter gene assay relative to rifampicin; assay type: ADME, cell-based; details: HEK293 cells expressing PXR LBD, read-out: Efficacy
Cytochrome P450 2C8 = molecular target: T2, Cytochrome P450 2C8 (Homo sapiens, UniProt P10632); experiment: Inhibition of CYP2C8 (unknown origin); assay type: ADME
T2 sequence (P10632 whole entry): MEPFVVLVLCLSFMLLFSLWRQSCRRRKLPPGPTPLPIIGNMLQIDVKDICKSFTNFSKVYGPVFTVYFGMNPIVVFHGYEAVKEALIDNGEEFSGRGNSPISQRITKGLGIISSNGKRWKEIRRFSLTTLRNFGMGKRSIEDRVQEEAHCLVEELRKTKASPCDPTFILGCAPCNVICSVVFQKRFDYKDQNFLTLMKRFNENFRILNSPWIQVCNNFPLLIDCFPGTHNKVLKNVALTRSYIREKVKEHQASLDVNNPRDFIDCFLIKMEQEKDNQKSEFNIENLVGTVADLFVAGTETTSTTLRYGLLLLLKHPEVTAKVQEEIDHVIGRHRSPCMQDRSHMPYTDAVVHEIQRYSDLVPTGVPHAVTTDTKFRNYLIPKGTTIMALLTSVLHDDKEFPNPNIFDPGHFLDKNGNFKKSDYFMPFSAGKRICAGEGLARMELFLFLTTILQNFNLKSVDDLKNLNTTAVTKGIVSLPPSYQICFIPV

Cytochrome P450 2D6 = Cytochrome P450 2D6 (Homo sapiens, UniProt P10635); experiment: Inhibition of CYP2D6 (unknown origin); assay type: ADME
Chain of Cytochrome P450 2D6 (P10635 whole entry, the tested form may be a part): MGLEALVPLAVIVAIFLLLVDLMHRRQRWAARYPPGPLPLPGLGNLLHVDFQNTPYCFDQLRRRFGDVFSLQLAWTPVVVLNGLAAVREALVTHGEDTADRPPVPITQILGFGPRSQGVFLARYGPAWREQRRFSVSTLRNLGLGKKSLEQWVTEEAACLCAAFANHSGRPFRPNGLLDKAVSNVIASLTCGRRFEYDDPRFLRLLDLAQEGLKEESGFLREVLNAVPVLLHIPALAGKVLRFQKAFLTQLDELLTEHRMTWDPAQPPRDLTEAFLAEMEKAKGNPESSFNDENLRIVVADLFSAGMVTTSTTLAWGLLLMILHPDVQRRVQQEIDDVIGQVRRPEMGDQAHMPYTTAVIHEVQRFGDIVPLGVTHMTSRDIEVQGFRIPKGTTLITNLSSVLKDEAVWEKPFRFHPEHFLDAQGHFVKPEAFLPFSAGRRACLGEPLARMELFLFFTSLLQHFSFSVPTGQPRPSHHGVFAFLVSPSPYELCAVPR

PXR (NR1I2) [3] = molecular target: T1, PXR (NR1I2); experiment: […] at PXR LBD (unknown origin) expressed in HEK293 cells […] at 5 uM after 16 hrs by luciferase reporter gene assay relative to rifampicin; assay type: ADME, cell-based; details: HEK293 cells expressing PXR LBD, read-out: Efficacy
Cytochrome P450 2C19 = Cytochrome P450 2C19 (Homo sapiens, UniProt P33261); experiment: Inhibition of CYP2C19 (unknown origin); assay type: ADME
Chain of Cytochrome P450 2C19 (P33261 whole entry): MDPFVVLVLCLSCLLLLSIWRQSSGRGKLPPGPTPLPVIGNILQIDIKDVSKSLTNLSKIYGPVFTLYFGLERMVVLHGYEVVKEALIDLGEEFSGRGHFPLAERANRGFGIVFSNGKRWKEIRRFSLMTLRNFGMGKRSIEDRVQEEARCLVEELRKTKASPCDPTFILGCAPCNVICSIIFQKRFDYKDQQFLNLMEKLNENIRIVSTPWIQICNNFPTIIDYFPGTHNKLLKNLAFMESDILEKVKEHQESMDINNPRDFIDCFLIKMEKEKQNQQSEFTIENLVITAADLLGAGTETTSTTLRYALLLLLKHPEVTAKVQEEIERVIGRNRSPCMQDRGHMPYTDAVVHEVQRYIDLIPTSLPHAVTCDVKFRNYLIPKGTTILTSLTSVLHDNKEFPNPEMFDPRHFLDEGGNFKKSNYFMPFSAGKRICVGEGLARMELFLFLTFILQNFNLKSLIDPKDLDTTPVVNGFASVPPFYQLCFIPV

[4] = Half life in human microsomes; assay type: ADME, Microsome
Cytochrome P450 2C9 = Cytochrome P450 2C9 (Homo sapiens, UniProt P11712); experiment: Inhibition of CYP2C9 (unknown origin); assay type: ADME
Chain of Cytochrome P450 2C9 (P11712 whole entry): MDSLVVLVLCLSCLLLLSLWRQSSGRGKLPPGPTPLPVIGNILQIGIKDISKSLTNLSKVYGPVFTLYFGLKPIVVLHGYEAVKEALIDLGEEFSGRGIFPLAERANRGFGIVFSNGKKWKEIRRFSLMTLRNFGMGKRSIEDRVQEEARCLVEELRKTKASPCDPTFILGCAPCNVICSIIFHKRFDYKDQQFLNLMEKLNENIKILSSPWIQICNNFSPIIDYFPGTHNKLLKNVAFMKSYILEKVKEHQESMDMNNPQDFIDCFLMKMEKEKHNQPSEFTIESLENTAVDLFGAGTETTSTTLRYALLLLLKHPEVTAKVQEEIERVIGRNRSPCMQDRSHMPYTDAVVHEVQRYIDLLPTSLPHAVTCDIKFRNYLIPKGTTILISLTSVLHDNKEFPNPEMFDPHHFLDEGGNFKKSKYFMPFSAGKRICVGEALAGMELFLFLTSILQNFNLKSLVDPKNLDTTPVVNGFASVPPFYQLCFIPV

[5] = Half life in rat microsomes; assay type: ADME, Microsome
Cytochrome P450 3A4 = Cytochrome P450 3A4 (Homo sapiens, UniProt P08684); experiment: Inhibition of CYP3A4 (unknown origin); assay type: ADME
Chain of Cytochrome P450 3A4 (P08684 whole entry): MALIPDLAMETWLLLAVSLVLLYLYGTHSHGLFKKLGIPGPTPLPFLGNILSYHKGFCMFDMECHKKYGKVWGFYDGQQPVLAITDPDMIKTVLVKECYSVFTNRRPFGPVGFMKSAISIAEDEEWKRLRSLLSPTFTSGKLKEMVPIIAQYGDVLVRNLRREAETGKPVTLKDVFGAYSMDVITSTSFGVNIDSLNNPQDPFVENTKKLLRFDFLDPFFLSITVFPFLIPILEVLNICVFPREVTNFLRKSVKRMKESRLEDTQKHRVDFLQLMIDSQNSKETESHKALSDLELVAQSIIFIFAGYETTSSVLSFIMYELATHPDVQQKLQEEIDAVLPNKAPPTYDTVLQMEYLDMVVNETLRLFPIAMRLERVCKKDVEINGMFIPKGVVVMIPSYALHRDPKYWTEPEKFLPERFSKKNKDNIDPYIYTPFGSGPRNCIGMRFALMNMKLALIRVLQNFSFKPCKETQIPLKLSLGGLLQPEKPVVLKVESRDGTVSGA

[6] = Thermodynamic solubility of the compound in 30 mM phosphate buffer at 10 mM at pH 7 after 2 to 5 days by UV-HPLC analysis; assay type: physicochemical; details: read-out: Therm_solubility
Cytochrome P450 1A2 = molecular target: T3, Cytochrome P450 1A2 (Homo sapiens, UniProt P05177); experiment: Inhibition of CYP1A2 (unknown origin); assay type: ADME
T3 sequence (P05177 whole entry): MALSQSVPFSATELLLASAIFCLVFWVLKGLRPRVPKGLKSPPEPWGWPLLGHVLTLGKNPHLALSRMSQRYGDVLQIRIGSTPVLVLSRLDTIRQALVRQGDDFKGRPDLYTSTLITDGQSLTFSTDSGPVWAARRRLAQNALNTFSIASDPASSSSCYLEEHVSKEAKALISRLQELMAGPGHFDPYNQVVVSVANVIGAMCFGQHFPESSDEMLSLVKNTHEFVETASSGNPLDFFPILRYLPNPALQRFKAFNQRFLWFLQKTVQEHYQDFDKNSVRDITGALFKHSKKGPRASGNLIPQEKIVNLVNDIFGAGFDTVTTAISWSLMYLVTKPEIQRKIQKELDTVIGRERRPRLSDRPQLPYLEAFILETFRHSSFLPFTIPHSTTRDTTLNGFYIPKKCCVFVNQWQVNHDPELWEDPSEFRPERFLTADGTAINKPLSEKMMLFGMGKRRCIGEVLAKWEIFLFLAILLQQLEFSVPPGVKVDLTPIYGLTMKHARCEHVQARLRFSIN

Structure (SMILES) | Emax at 16 h, 1 µM (PXR (NR1I2) [1]) | Emax at 16 h, 10 µM (PXR (NR1I2) [2]) | Emax at 16 h, 5 µM (PXR (NR1I2) [3]) | further results
CC(C)(C)NS(=O)(=O)c1ccc(-c2sc(C(=O)NC3CS(=O)(=O)C3)nc2CC2CCCCC2)c2ccccc12 | 181% | 187% | – | –
C[C@H](NS(=O)(=O)c1ccc(-c2sc(C(=O)NCC(C)(C)O)nc2COC(C)(C)C)c(Cl)c1Cl)C(F)(F)F | 61% | – | 117% | INH (Cytochrome P450 2C8): > 10 µM; INH (Cytochrome P450 2D6): > 10 µM; INH (Cytochrome P450 2C19): 6.5 µM; half-life [4]: > 180 min; INH (Cytochrome P450 2C9): 1.7 µM; half-life [5]: > 180 min; INH (Cytochrome P450 3A4): > 10 µM; solubility thermodynamic at 10000 µM [6]: 12 µM (≈ 7.28 µg/mL)
CC(C)(O)CNC(=O)c1nc(CC2CCCCC2)c(-c2ccc(S(=O)(=O)NC(C)(C)C)c(Cl)c2C(F)F)s1 | – | – | – | INH (Cytochrome P450 1A2): > 10 µM; INH (Cytochrome P450 2C8): 4.6 µM; INH (Cytochrome P450 2D6): > 10 µM; INH (Cytochrome P450 2C19): 5.6 µM; half-life [4]: 18 min; INH (Cytochrome P450 2C9): 0.4 µM; half-life [5]: 14 min; INH (Cytochrome P450 3A4): 6.9 µM
CC(C)(C)NS(=O)(=O)c1ccc(-c2sc(C(=O)NCC(C)(C)C(N)=O)nc2CC2CCCCC2)c2ccccc12 | 110% | – | 142% | –
C[C@H](NS(=O)(=O)c1ccc(-c2sc(C(=O)N3CC4(C3)CS(=O)(=O)C4)nc2CC2CCC2)c(Cl)c1Cl)C(F)(F)F | 56% | – | 106% | –
CC(C)(C)NS(=O)(=O)c1ccc(-c2sc(C(=O)NC3CCOCC3)nc2CC2CCCCC2)c2ccccc12 | 181% | 206% | – | –
CC(C)(C)NS(=O)(=O)c1ccc(-c2sc(C(=O)NCC3CS(=O)(=O)C3)nc2CC2CCCCC2)c2ccccc12 | 140% | – | 147% | –
CC(C)(C)NS(=O)(=O)c1ccc(-c2sc(C(=O)NC3CCS(=O)(=O)CC3)nc2C(C)(C)C)c2ccccc12 | 66% | – | 112% | –
CC(C)(C)NS(=O)(=O)c1ccc(-c2sc(C(=O)NC34CC(C(=O)O)(C3)C4)nc2CC2CCCCC2)c2ccccc12 | 69% | 116% | – | –
C[C@H](NC(=O)c1cc(-c2sc(C(=O)N[C@H]3C[C@H](C(=O)O)C3)nc2CC2CCCCC2)cc(C2(C#N)CC2)c1)C(F)(F)F | 3.1% | – | 7.5% | –
CC(C)(O)CNC(=O)c1nc(CC2CCCCC2)c(-c2cnc(S(=O)(=O)NC(C)(C)C)c3ccccc23)s1 | – | – | – | INH (Cytochrome P450 1A2): > 10 µM; INH (Cytochrome P450 2C8): > 10 µM; INH (Cytochrome P450 2D6): > 10 µM; INH (Cytochrome P450 2C19): 7.6 µM; half-life [4]: 23 min; INH (Cytochrome P450 2C9): 1.1 µM; half-life [5]: 5.2 min; INH (Cytochrome P450 3A4): > 10 µM; solubility thermodynamic at 10000 µM [6]: < 4 µM
C[C@H](NC(=O)c1cc(-c2sc(C(=O)N[C@H]3C[C@H](C(=O)O)C3)nc2CC2CCCCC2)cc(C2(C)CC2)c1)C(F)(F)F | 26% | 94% | – | INH (Cytochrome P450 1A2): > 10 µM; INH (Cytochrome P450 2C8): > 10 µM; INH (Cytochrome P450 2D6): > 10 µM; INH (Cytochrome P450 2C19): > 10 µM; half-life [4]: > 180 min; INH (Cytochrome P450 2C9): > 10 µM; half-life [5]: 150 min; INH (Cytochrome P450 3A4): > 10 µM; solubility thermodynamic at 10000 µM [6]: 17 µM (≈ 10.1 µg/mL)
C[C@H](NC(=O)c1cc(-c2sc(C(=O)N[C@H]3C[C@H](C(=O)O)C3)nc2CC2CCCCC2)cc(C(C)(C)C)c1)C(F)(F)F | 29% | – | 59% | –
CC(C)(CCF)NS(=O)(=O)c1ccc(-c2sc(C(=O)N[C@H]3C[C@H](C(=O)O)C3)nc2CC2CCCCC2)c2ccccc12 | 91% | – | 117% | –
CC(C)(O)CNC(=O)c1nc(CC2CCCCC2)c(-c2ccc(S(=O)(=O)NC3(C#N)CC3)c3ccccc23)s1 | 155% | 167% | – | INH (Cytochrome P450 1A2): > 10 µM; INH (Cytochrome P450 2C8): 7.3 µM; INH (Cytochrome P450 2D6): > 10 µM; INH (Cytochrome P450 2C19): 6.3 µM; half-life [4]: 27 min; INH (Cytochrome P450 2C9): 0.7 µM; half-life [5]: 15 min; INH (Cytochrome P450 3A4): 0.9 µM; solubility thermodynamic at 10000 µM [6]: 10 µM (≈ 5.67 µg/mL)
C[C@H](NS(=O)(=O)c1ccc(-c2sc(C(=O)NCC(C)(C)O)nc2CC2CC(F)(F)C2)c2ccccc12)C(F)(F)F | 71% | – | 80% | –
C[C@H](NS(=O)(=O)c1ccc(-c2sc(C(=O)NCC(C)(C)O)nc2Cc2ccc(F)cc2)c(Cl)c1Cl)C(F)(F)F | 80% | – | 134% | –
CC(C)(CCO)NS(=O)(=O)c1ccc(-c2sc(C(=O)N[C@H]3C[C@H](C(=O)O)C3)nc2CC2CCCCC2)c2ccccc12 | 15% | – | 53% | –
C[C@H](NS(=O)(=O)c1ccc(-c2sc(C(=O)N[C@H]3C[C@H](C(=O)O)C3)nc2CC2CCC2)c2ccccc12)C(F)(F)F | 40% | – | 118% | –
CC(C)(O)CNC(=O)c1nc(CC2CCCCC2)c(-c2ccc(S(=O)(=O)NC(C)(C)C)c3ccccc23)s1 | 138% | – | 116% | –
CC[C@H](NC(=O)c1cc(-c2sc(C(=O)N[C@H]3C[C@H](C(=O)O)C3)nc2CC2CCCCC2)cc(C2(C)CC2)c1)C(F)(F)F | 32% | – | 71% | –
CC(C)(C)NS(=O)(=O)c1ccc(-c2sc(C(=O)N[C@H]3C[C@H](C(=O)O)C3)nc2CC2CCCCC2)c(Cl)c1Cl | 16% | 23% | – | –
CC(C)(C)NS(=O)(=O)c1ccc(-c2sc(C(=O)N3CC4(CCS(=O)(=O)CC4)C3)nc2CC2CCCCC2)c2ccccc12 | 116% | 128% | – | –
CC(C)(C)NS(=O)(=O)c1ccc(-c2sc(C(=O)N[C@H]3C[C@H](C(=O)O)C3)nc2CC2CCCCC2)c2c1CCCC2 | 10% | 20% | – | INH (Cytochrome P450 1A2): > 10 µM; INH (Cytochrome P450 2C8): 4.2 µM; INH (Cytochrome P450 2D6): > 10 µM; INH (Cytochrome P450 2C19): > 10 µM; half-life [4]: 16 min; INH (Cytochrome P450 2C9): > 10 µM; half-life [5]: 22 min; INH (Cytochrome P450 3A4): > 10 µM; solubility thermodynamic at 10000 µM [6]: < 1 µM
CC(C)(C)c1cc(-c2sc(C(=O)N[C@H]3C[C@H](C(=O)O)C3)nc2CC2CCCCC2)cc(C(O)(C(F)(F)F)C(F)(F)F)c1 | 41% | – | 89% | –
CCS(=O)(=O)c1ccc(CNC(=O)c2nc(CC3CCCCC3)c(-c3ccc(S(=O)(=O)NC(C)(C)C)c4ccccc34)s2)cc1 | 26% | 94% | – | –
C[C@H](NS(=O)(=O)c1cc(-c2sc(C(=O)N[C@H]3C[C@H](C(=O)O)C3)nc2CC2CCCCC2)cc(C(C)(C)C)c1)C(F)(F)F | 157% | – | 159% | –
CC(C)(C)NC(=O)c1cc(-c2sc(C(=O)N[C@H]3C[C@H](C(=O)O)C3)nc2CC2CCCCC2)cc(C2(C)CC2)c1 | 11% | 53% | – | –
CCC(C)(C)NS(=O)(=O)c1ccc(-c2sc(C(=O)N[C@H]3C[C@H](C(=O)O)C3)nc2CC2CCCCC2)c2ccccc12 | 116% | – | 158% | –
